Laboratory results reported in patent US20240124503A1, “HETEROAROMATIC PHOSPHONIUM SALTS AND THEIR USE TREATING CANCER” (FLORATEK PHARMA S.A., priority 2021, published 2024).

Tests used:
KIT(D816V) = target: T1, KIT(D816V) (Homo sapiens, UniProt P10721, D816V); test: KINOMEscan competition binding, KIT(D816V)
T1 construct: purchased Eurofins (KINOMEscan); host or cells: E. coli BL21-derived host (T7 phage) or HEK-293
Method: Selected compounds were screened for kinase inhibition using the KINOMEscan™ assay (Eurofins) which is based on a competition binding assay that quantitatively measures the ability of a compound to compete with an immobilized, active-site directed ligand. The assay was performed by combining three components: DNA-tagged kinase; immobilized ligand; and the test compound. The ability of the test compound to compete with the immobilized ligand was measured via quantitative PCR of the DNA tag.
Kinase-tagged T7 phage strains were prepared in an E. coli host derived from the BL21 strain. E. coli were grown to log-phase and infected with T7 phage and incubated with shaking at 32° C. until lysis. The lysates were centrifuged and filtered to remove cell debris. The remaining kinases were produced in HEK-293 cells and subsequently tagged with DNA for qPCR detection. Streptavidin-coated magnetic beads were treated with biotinylated small molecule ligands for 30 minutes at room temperature to generate affinity resins for kinase assays. […] Kds were determined using an 11-point 3-fold compound dilution series with three DMSO control points. […] The kinase concentration in the eluates was measured by qPCR. […]
Binding constants (Kds) were calculated with a standard dose-response curve using the Hill equation: Response=Background+[Signal−Background/1+(Kd^Hill Slope/Dose^Hill Slope)] […]

ovarian cancer cell = test: Cell viability, ovarian cancer cells (panel statement); assay type: cell-based; details: Table 17; read-out: IC50, ovarian cancer cell growth
Method: (§1) Antitumor activity of the compounds and doxorubicin as a positive control was assessed by using the CellTiter-Blue Cell Viability Assay (Promega, #G8082) or CellTiter-Glow® Luminescent Cell Viability assay (Promega #G7572) according to the manufacturer's instructions. The compounds were tested at 5 or 6 concentrations in half-log increments (highest concentration 30 μM or 100 μM) in duplicate or triplicate well conditions.
(§2) Tumor cells were grown at 37° C. in a humidified atmosphere with 5% CO2 in RPMI 1640 or DMEM medium, supplemented with 10% (v/v) fetal calf serum and 50 μg/ml gentamicin for up to 20 passages, and were passaged once or twice weekly. Cells were harvested using TrypLE or PBS buffer containing 1 mM EDTA, and the percentage of viable cells was determined using a CASY Model TI cell counter (OMNI Life Science). Cells were harvested from exponential phase cultures, counted and plated in 96 well flat-bottom microtiter plates at a cell density depending on the cell line's growth rate (4,000-20,000 cells/well depending on the cell line's growth rate, up to 60,000 for hematological cancer cell lines) in RPMI 1640 or DMEM medium supplemented with 10% (v/v) fetal calf serum and 50 μg/ml gentamicin (140 μl/well). […] Viability of cells was quantified by the CellTiter-Blue® cell viability assay (Promega G8081) or CellTiter-Glow® Luminescent Cell Viability assay (Promega #G7572). […]

U-118 = test: Cell viability assay, U-118; assay type: cell-based; details: brain carcinoma cell line U-118
Method: as §1, §2

colon cancer cell = test: Cell viability, colon cancer cells (panel statement); assay type: cell-based; details: summary of Table 6; read-out: IC50, colon cancer cell growth
Method: as §1, §2

T1 sequence (P10721 26-976 D816V): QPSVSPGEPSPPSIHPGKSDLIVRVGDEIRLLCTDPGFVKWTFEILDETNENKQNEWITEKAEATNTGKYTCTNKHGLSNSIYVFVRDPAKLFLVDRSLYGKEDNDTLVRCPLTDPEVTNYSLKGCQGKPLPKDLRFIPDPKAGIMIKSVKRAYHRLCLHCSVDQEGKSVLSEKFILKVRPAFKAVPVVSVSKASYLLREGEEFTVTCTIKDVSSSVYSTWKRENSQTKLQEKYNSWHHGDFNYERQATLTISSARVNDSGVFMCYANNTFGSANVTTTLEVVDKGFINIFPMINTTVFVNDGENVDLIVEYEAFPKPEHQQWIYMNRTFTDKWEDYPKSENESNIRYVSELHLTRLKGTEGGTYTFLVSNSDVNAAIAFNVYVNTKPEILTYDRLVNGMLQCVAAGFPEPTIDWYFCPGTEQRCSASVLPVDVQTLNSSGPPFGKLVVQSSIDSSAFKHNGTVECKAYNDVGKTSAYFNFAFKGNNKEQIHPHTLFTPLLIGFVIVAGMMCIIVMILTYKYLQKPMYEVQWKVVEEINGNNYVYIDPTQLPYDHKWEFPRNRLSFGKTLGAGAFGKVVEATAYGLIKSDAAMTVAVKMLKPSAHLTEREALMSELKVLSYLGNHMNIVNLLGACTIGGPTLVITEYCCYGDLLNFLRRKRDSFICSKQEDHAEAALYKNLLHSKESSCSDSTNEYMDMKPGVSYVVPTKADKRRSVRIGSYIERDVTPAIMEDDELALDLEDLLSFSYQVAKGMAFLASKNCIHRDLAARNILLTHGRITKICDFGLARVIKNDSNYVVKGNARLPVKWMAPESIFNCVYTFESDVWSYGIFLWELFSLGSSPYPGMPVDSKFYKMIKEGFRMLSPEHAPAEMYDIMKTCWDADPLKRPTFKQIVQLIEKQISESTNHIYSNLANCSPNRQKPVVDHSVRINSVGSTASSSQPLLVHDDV

COc1c(O)ccc2c(=O)c(O)c(-c3ccc(CCCC[P+](c4ccccc4)(c4ccccc4)c4ccccc4)cc3)oc12 [SND190, (4-(4-(3,7-Dihydroxy-8-methoxy-4-oxo-4H1-chromen-2-yl)phenyl)butyl)triphenylphosphonium bromide]
Kd (KIT(D816V)): 0.93 µM
IC50 (ovarian cancer cell): < 20 µM
IC50 (U-118): 9.4 µM
IC50 (colon cancer cell): < 20 µM
